Results: patent US12173026B2, “PRMT5 inhibitors” (Merck Sharp & Dohme LLC, priority 2018, dated 2024)

What follows are compounds tested on symmetric dimethylation of arginine (SDMA) of PRMT5 substrates in MCF-7 cells (assay: PRMT5 Cell Target Engagement (TE) Assay). Settings: Homo sapiens, MCF7, 72 h; MCF-7 cells treated for 3 days; nuclear SDMA by high content imaging; top concentration 10000 nM.
Type: cell-based
Text: PRMT5 Cell Target Engagement (TE) Assay
The PRMT5 TE assay is a biomarker assay for identifying compounds that inhibit symmetric dimethylation of arginine (SDMA) of PRMT5 substrates. The following substrates have been reported for PRMT5: Histone H2A and H4 R3, Histone H3 R2, Histone 1-13 R8, spliceosome Sm proteins, ribosomal protein RPS10, p53, FEN1, nucleoplasmin, nucleolin, EGFR and EBNA. The assay will focus on detecting symnetrically dimethylated nuclear proteins using high content imaging technology. Detection of the expression of symmetrically dimethylated nuclear proteins is through a mixture of primary rabbit monoclonal antibodies to SDMA (CST 13222) which in turn recognized by an Alexafluor 488 dye-conjugated anti-rabbit IgG secondary antibody. The IN Cell Analyzer 2200 or Opera-Phenix measures nuclear Alexafluor 488 fluorescent dye intensity that is directly related to the level of expression of symmetrically dimethylated nuclear proteins at the single cell level. Nuclear AF488 dye intensities are compared to the mean value for DMSO treated cells (MIN) to report percent of inhibition for each compound-treated well.
In this assay, the cell potency (EC50) of each compound was determined from a ten point (1:3 serial dilution; top compound concentration of 10000 nM) titration curve using the following outlined procedure. Each well of a BD falcon collagen coated black/clear bottom 384-well plate was seeded with 4000 MCF-7 cells in 30 pal media and allowed to attach for 5 hours. Media is ATCC-formulated Eagle's Minimum Essential Medium, Catalog No. 30-2003. The following components were added to the base medium: 0.01 mg/mL human recombinant insulin; fetal bovine serum to a final concentration of 10%. Additional 30 pal of media containing 2× compounds were added to each well. Cells were treated for 3 days in 37° C. CO2 incubator. On day 3, cells were fixed with Cytofix, permeabilized with 0.4% Triton-X-100/Cytofix, and washed with D-PBS without Ca/Mg. Cells were blocked with Licor Odessey blocking reagent for 1 hour at room temperature, followed by incubation with anti-SDMA (1:1000) antibody at 4° C. overnight. 1° antibody was removed, followed by three washings with DPBS without Ca/Mg and 0.05% Tween20. Hoechst (5 μg/mL), Cell Mask deep stain (1:2000) and Alexa488-conjugated goat anti-rabbit IgG (2 μg/mL) was added for 1 hour at room temperature. A final washing step (three washes) was performed before sealing plate for imaging on in Cell Analyzer 2200 or Opera-Phenix. Images from analyzer were uploaded to Columbus for image analysis. IC50 values were determined by 4 parameters robust fit of percent fluorescence units vs. (Log 10) compound concentrations.

Compound	EC50 [nM]
Nc1nc2cc(C[C@@H]3CC[C@@]4(O)[C@@H]3O[C@@H](n3ccc5c(N)ncnc53)[C@@H]4O)ccc2cc1Br [Example 9, (2R,3R,3aS,6S,6aR)-6-((2-amino-3-bromoquinolin-7-yl)methyl)-2-(4-amino-7H-pyrrolo[2,3-d]pyrimidin-7-yl)hexahydro-2H-cyclopenta[b]furan-3,3a-diol]	1.3
Cc1nc(N)c2c(F)cn([C@@H]3O[C@@H]4[C@H](Cc5ccc6cc(F)c(N)nc6c5)CC[C@]4(O)[C@H]3O)c2n1 [Example 44, (2R,3R,3aS,6S,6aR)-6-((2-amino-3-fluoroquinolin-7-yl)methyl)-2-(4-amino-5-fluoro-2-methyl-7H-pyrrolo[2,3-d]pyrimidin-7-yl)hexahydro-3aH-cyclopenta[b]furan-3,3a-diol 2,2,2-trifluoroacetate]	8.8
Nc1nc2cc(O[C@H]3CC[C@@]4(O)[C@@H]3O[C@@H](n3ccc5c(N)ncnc53)[C@@H]4O)ccc2cc1Br [Example 6, (2R,3R,3aS,6S,6aR)-6-((2-amino-3-bromoquinolin-7-yl)oxy)-2-(4-amino-7H-pyrrolo[2,3-d]pyrimidin-7-yl)hexahydro-2H-cyclopenta[b]furan-3,3a-diol]	1.2
Cc1ncnc2c1ccn2[C@@H]1O[C@@H]2[C@@H](Oc3ccc4ccc(N)nc4c3)CC[C@]2(O)[C@H]1O [Example 113, (2R,3R,3aS,6S,6aR)-6-((2-aminoquinolin-7-yl)oxy)-2-(4-methyl 7H-pyrrolo[2,3-d]pyrimidin-7-yl)hexahydro-2H-cyclopenta[b]furan-3,3a-diol]	1.8
Nc1nc2c(F)c(C[C@@H]3CC[C@@]4(O)[C@@H]3O[C@@H](n3ccc5c(N)ncnc53)[C@@H]4O)ccc2cc1Cl [Example 26, (2R,3R,3aS,6S,6aR)-6-((2-amino-3-chloro-8-fluoroquinolin-7-yl)methyl)-2-(4-amino-7H-pyrrolo[2,3-d]pyrimidin-7-yl)hexahydro-3aH-cyclopenta[b]furan-3,3a-diol]	4
Cc1nc(C)c2ccn([C@@H]3O[C@@H]4[C@H](Cc5ccc6cc(Br)c(N)nc6c5)CC[C@]4(O)[C@H]3O)c2n1 [Example 81, (2R,3R,3aS,6S,6aR)-6-((2-ammo-3-bromoquinolin-7-yl)methyl)-2-(2,4-dimethyl-7H-pyrrolo[2,3-d]pyrimidin-7-yl)hexahydro-3aH-cyclcopenta[b]furan-3,3a-diol]	3.9
Cc1ncnc2c1ccn2[C@@H]1O[C@@H]2[C@@H](Oc3ccc4cc5c(nc4c3)NCC5)CC[C@]2(O)[C@H]1O [Example 89, (2R,3R,3aS,6S,6aR)-6-((2,3-dihydro-1H-pyrrolo[2,3-b]quinolin-7-yl)oxy)-2-(4-methyl-7H-pyrrolo[2,3-d]pyrimidin-7-yl)hexahydro-3aH-cyclopenta[b]furan-3,3a-diol]	4.4
Nc1nc2cc(C[C@@H]3CC[C@@]4(O)[C@@H]3O[C@@H](n3ccc5c(N)ncnc53)[C@@H]4O)c(F)cc2cc1F [Example 27]	2.8
Cc1ncnc2c1ccn2[C@@H]1O[C@@H]2[C@H](Oc3ccc4cc(Br)c(N)nc4c3)CC[C@]2(O)[C@H]1O [Example 129, (2R,3R,3aS,6R,6aR)-6-((2-amino-3-bromoquinolin-7-yl)oxy)-2-(4-methyl-7H-pyrrolo[2,3-d]pyrimidin-7-yl)hexahydro-3aH-cyclopenta[b]furan-3,3a-diol]	10000
Nc1nc2cc(C[C@@H]3CC[C@@]4(O)[C@@H]3O[C@@H](n3cc(F)c5c(N)ncnc53)[C@@H]4O)ccc2cc1Br [Example 108]	0.9
Cc1ncnc2c1ccn2[C@@H]1C[C@@H]2[C@H](Cc3ccc4cc(Cl)c(N)nc4c3)CC[C@]2(O)[C@H]1O [Example 17, (1S,2R,3aR,4S,6aR)-4-((2-amino-3-chloroquinolin-7-yl)methyl)-2-(4-methyl-7H-pyrrolo[2,3-d]pyrimidin-7-yl)hexahydropentalene-1,6a(1H)-diol]	0.9
Cc1cn([C@@H]2C[C@@H]3[C@H](Cc4ccc5cc(F)c(N)nc5c4)CC[C@]3(O)[C@H]2O)c2ncnc(N)c12 [Example 38, (1S,2R,3aR,4S,6aR)-4-((2-amino-3-fluoroquinolin-7-yl)methyl)-2-(4-amino-5-methyl-7H-pyrrolo[2,3-d]pyrimidin-7-yl)hexahydropentaiene-1,6a(1H)-diol]	0.6
Cc1ncnc2c1ccn2[C@@H]1O[C@@H]2[C@@H](Cc3ccc4cc(Cl)c(N)nc4c3)CC[C@]2(O)[C@H]1O [Example 131, (2R,3R,3aS,6R,6aR)-6-((2-amino-3-chloroquinolin-7-yl)methyl)-2-(4-methyl-7H-pyrrolo[2,3-d]pyrimidin-7-yl)hexahydro-3aH-cyclopenta[b]furan-3,3a-diol]	21.3
Cc1ncnc2c1ccn2[C@@H]1O[C@@H]2[C@H](Cc3ccc4ccc(N)nc4c3)CC[C@]2(O)[C@H]1O [Example 107, (2R,3R,3aS,6S,6aR)-6-((2-aminoquinolin-yl)methyl)-2-(4-methyl-7H-pyrrolo[2,3-d]pyrimidin-7-yl)hexahydro-2H-cyclopenta[b]furan-3,3a-diol]	0.5
Cc1nc(N)nc2c1ccn2[C@@H]1O[C@@H]2[C@@H](Oc3ccc4cc(Br)c(N)nc4c3)CC[C@]2(O)[C@H]1O [Example 114, (2R,3R,3aS,6S,6aR)-6-((2-amino-3-bromoquinolin-7-yl)oxy)-2-(2-amino-4-methyl-7H-pyrrolo[2,3-d]pyrimidin-7-yl)hexahydro-3aH-cyclopenta[b]furan-3,3a-diol]	4.4
Nc1nc2cc(C[C@@H]3CC[C@@]4(O)[C@@H]3O[C@@H](n3cc(F)c5c(N)ncnc53)[C@@H]4O)ccc2cc1F [Example 59, (2R,3R,3aS,6S,6aR)-6-((2-amino-3-fluoroquinolin-7-yl)methyl)-2-(4-amino-5-fluoro-7H-pyrrolo[2,3-d]pyrimidin-7-yl)hexahydro-3aH-cyclopenta[b]furan-3,3a-diol]	4.6
CNc1ncnc2c1ccn2[C@@H]1C[C@H](COc2ccc3cc(Br)c(N)nc3c2)[C@@](C)(O)[C@H]1O [Example 93, (1R,2S,3R,5R)-5-(((2-amino-3-bromoquinolin-7-yl)oxy)methyl)-1-methyl-3-(4-(methylamino)-7H-pyrrolo[2,3-d]pyrimidin-7-yl)cyclopentane-1,2-diol]	3.5
Nc1nc2cc(C[C@H]3[C@H]4O[C@@H](n5cc(F)c6c(N)ncnc65)[C@H](O)[C@@]4(O)C[C@@H]3F)ccc2cc1F [Example 55, (2R,3R,3aS,5S,6S,6aR)-2-(4-amino-5-fluoro-7H-pyrrolo[2,3-d]pyrimidin-7-yl)-6-[(2-amino-3-fluoroquinolin-7-yl)methyl]-5-fluorohexahydro-3aH-cyclopenta[b]furan-3,3a-diol,2,2,2-trifluoroethanol]	3.9
Nc1nc2cc(C[C@@H]3OC[C@@]4(O)[C@@H]3O[C@@H](n3ccc5c(N)ncnc53)[C@@H]4O)ccc2cc1Br [Example 136, (2R,3R,3aS,6S,6aR)-6-((2-amino-3-bromoquinolin-7-yl)methyl)-2-(4-amino-7H-pyrrolo[2,3-d]pyrimidin-7-yl)tetrahydrofuro[3,4-b]furan-3,3a(4H)-diol]	0.4
Cc1nc(N)c2ccn([C@@H]3O[C@@H]4[C@@H](Oc5ccc6cc(Br)c(N)nc6c5)CC[C@]4(O)[C@H]3O)c2n1 [Example 63, (2R,3R,3aS,6S,6aR)-2-(4-amino-2-methyl-7H-pyrrolo[2,3-d]pynmidin-7-yl)-6-((2-amino-3-bromoquinolin-7-yl)oxy)hexahydro-3aH-cyclopenta[b]furan-3,3a-diol]	5.6
Cc1ncnc2c1ccn2[C@@H]1O[C@@H]2[C@@H](Oc3ccc4cc(C(F)F)c(N)nc4c3)CC[C@]2(O)[C@H]1O [Example 115, (2R,3R,3aS,6S,6aR)-6-((2-amino-3-(difluoromethyl)quinolin-7-yl)oxy)-2-(4-methyl-7H-pyrrolo[2,3-d]pyrimidin-7-yl)hexahydro-3aH-cyclopenta[b]furan-3,3a-diol]	13.6
Nc1ccc2ccc(O[C@H]3CC[C@@]4(O)[C@@H]3O[C@@H](n3ccc5c(N)ncnc53)[C@@H]4O)cc2n1 [Example 104, (2R,3R,3aS,6S,6aR)-2-(4-amino-7H-pyrrolo[2,3-d]pyrimidin-7-yl)-6-((2-aminoquinolin-7-yl)oxy)hexahydro-2H-cyclopenta[b]furan-3,3a-diol]	7
C[C@@]1(O)[C@@H](COc2ccc3ccc(N)nc3c2)C[C@@H](n2ccc3cncnc32)[C@@H]1O [Example 105, (1R,2S,3R,5R)-5-(((2-aminoquinolin-7-yl)oxy)methyl)-1-methyl-3-(7H-pyrrolo[2,3-d]pyrimidin-7-yl)cyclopentane-1,2-diol]	0.9
